Active and inactive are the calls of the source. No cut-off for these calls is given here.

Data on 31 compounds can be found in ChEMBL document CHEMBL4359851, “Design, synthesis, and biological evaluation of a new class of histone acetyltransferase p300 inhibitors” (Eur J Med Chem, 2019).

Data set [1] can be described thus: Reactivity with dithiothretol assessed as addition product with thiol group measured at 50 degC by mass spectrometry. The class given is physicochemical.
A short description of data set [2]: Reactivity with glutathione assessed as addition product with thiol group measured at 50 degC by mass spectrometry. The class given is physicochemical.
Another data set addresses T1, Histone deacetylase 8 (Homo sapiens, UniProt Q9BY41).
T1 sequence (Q9BY41 whole entry): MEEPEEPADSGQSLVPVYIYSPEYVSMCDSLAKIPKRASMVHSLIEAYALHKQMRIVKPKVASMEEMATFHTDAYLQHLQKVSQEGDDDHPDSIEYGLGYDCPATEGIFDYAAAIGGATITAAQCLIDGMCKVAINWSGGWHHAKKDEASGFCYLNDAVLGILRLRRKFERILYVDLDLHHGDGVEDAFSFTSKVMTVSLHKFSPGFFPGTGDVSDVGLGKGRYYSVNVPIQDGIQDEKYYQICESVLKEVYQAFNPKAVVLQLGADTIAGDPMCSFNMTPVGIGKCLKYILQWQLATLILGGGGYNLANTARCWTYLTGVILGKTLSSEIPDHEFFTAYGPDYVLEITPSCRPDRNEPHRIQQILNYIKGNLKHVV
In words: Inhibition of recombinant HDAC8 (unknown origin) measured after 30 mins by fluorescence assay.

The nature of data set [3]: Reactivity with dithiothretol assessed as addition product with thiol group measured after 6 hrs by mass spectrometry. The class given is physicochemical.
In the next data set the target is Histone deacetylase 2 (Homo sapiens, UniProt Q92769). In words: Inhibition of recombinant HDAC2 (unknown origin) measured after 30 mins by fluorescence assay.
A further data set concerns the target Histone deacetylase 1 (Homo sapiens, UniProt Q13547). Nature of the data set: Inhibition of recombinant HDAC1 (unknown origin) measured after 30 mins by fluorescence assay.
In data set [4] the target is T2, Protein deacetylase HDAC6 (Homo sapiens, UniProt Q9UBN7).
T2 sequence (Q9UBN7 whole entry): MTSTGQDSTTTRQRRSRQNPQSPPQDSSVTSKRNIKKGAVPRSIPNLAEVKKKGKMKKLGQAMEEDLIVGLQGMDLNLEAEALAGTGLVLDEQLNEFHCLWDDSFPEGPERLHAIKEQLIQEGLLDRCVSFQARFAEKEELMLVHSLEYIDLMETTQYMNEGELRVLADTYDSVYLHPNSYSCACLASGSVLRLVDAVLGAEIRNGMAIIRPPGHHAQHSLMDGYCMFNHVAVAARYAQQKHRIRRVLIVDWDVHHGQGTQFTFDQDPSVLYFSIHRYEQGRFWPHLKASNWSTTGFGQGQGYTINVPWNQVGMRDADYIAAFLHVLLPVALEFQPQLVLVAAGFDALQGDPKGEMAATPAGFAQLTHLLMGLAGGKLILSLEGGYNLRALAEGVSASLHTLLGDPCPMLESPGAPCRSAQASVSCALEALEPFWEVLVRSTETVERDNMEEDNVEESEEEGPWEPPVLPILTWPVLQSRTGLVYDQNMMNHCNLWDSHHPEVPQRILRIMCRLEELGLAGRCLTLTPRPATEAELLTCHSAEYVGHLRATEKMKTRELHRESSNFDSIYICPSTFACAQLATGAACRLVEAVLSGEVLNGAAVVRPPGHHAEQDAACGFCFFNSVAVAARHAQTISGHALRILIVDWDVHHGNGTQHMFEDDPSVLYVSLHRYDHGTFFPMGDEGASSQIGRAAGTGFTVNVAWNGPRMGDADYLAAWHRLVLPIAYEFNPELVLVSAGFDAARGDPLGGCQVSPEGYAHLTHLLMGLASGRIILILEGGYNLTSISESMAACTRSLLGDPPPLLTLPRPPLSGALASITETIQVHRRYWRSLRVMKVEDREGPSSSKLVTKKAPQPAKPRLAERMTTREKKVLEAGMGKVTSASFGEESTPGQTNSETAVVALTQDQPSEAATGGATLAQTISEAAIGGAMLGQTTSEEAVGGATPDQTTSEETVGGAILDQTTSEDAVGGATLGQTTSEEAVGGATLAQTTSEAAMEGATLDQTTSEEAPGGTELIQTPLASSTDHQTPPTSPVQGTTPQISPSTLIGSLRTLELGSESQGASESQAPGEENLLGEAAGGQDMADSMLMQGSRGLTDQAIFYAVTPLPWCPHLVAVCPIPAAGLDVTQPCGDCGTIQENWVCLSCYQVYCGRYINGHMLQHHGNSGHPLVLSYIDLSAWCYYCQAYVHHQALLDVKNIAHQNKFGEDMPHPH
Nature of the data set: Inhibition of recombinant HDAC6 (unknown origin) measured after 30 mins by fluorescence assay.

A further data set relates to T47D. In words: Antiproliferative activity against HER2-negative human T47D cells measured after 6 days of incubation by sulforhodamine B assay. Type of data set: functional, cell-based. Particulars: 144 h.
In data set [5] the target is T3, Histone acetyltransferase p300 (Homo sapiens, UniProt Q09472). Nature of the data set: Inhibition of p300 (unknown origin) using biotinylated histone H3 (1 to 21 residues) as substrate measured after 90 mins in presence of Acetyl CoA by AlphaLISA assay.
For the next data set, the target named is Histone deacetylase 3 (Homo sapiens, UniProt O15379). In words: Inhibition of recombinant HDAC3 (unknown origin) measured after 30 mins by fluorescence assay.
Data set [6] is described as follows: Reactivity with glutathione assessed as addition product with thiol group measured after 6 hrs by mass spectrometry. The class given is physicochemical.
Data set [7] concerns the target T3, Histone acetyltransferase p300. Nature of the data set: Inhibition of p300 in human U2932 cells assessed as reduction in H3K27 acetylation at 10 uM measured after 4 days in presence of EZH2 inhibitor EPZ6438 by Western blot analysis. The class given is cell-based.
The subject of a further data set is MCF7. In words: Antiproliferative activity against HER2-negative human MCF7 cells measured after 6 days of incubation by sulforhodamine B assay. The class given is functional, cell-based. Particulars: MCF7, 144 h.
Data set [8] in a line: Solubility of compound in water. Type of data set: physicochemical. Particulars: buffer.
Data set [9] in a line: Solubility of compound in ethyl acetate. The class given is physicochemical.
Data set [10] can be described thus: Reactivity with glutathione assessed as addition product with thiol group measured within 1 hr by mass spectrometry. The class given is physicochemical.
A short description of data set [11]: Reactivity with dithiothretol assessed as addition product with thiol group measured within 1 hr by mass spectrometry. The class given is physicochemical.

T3 sequence (Q09472 whole entry, the tested form may be a part): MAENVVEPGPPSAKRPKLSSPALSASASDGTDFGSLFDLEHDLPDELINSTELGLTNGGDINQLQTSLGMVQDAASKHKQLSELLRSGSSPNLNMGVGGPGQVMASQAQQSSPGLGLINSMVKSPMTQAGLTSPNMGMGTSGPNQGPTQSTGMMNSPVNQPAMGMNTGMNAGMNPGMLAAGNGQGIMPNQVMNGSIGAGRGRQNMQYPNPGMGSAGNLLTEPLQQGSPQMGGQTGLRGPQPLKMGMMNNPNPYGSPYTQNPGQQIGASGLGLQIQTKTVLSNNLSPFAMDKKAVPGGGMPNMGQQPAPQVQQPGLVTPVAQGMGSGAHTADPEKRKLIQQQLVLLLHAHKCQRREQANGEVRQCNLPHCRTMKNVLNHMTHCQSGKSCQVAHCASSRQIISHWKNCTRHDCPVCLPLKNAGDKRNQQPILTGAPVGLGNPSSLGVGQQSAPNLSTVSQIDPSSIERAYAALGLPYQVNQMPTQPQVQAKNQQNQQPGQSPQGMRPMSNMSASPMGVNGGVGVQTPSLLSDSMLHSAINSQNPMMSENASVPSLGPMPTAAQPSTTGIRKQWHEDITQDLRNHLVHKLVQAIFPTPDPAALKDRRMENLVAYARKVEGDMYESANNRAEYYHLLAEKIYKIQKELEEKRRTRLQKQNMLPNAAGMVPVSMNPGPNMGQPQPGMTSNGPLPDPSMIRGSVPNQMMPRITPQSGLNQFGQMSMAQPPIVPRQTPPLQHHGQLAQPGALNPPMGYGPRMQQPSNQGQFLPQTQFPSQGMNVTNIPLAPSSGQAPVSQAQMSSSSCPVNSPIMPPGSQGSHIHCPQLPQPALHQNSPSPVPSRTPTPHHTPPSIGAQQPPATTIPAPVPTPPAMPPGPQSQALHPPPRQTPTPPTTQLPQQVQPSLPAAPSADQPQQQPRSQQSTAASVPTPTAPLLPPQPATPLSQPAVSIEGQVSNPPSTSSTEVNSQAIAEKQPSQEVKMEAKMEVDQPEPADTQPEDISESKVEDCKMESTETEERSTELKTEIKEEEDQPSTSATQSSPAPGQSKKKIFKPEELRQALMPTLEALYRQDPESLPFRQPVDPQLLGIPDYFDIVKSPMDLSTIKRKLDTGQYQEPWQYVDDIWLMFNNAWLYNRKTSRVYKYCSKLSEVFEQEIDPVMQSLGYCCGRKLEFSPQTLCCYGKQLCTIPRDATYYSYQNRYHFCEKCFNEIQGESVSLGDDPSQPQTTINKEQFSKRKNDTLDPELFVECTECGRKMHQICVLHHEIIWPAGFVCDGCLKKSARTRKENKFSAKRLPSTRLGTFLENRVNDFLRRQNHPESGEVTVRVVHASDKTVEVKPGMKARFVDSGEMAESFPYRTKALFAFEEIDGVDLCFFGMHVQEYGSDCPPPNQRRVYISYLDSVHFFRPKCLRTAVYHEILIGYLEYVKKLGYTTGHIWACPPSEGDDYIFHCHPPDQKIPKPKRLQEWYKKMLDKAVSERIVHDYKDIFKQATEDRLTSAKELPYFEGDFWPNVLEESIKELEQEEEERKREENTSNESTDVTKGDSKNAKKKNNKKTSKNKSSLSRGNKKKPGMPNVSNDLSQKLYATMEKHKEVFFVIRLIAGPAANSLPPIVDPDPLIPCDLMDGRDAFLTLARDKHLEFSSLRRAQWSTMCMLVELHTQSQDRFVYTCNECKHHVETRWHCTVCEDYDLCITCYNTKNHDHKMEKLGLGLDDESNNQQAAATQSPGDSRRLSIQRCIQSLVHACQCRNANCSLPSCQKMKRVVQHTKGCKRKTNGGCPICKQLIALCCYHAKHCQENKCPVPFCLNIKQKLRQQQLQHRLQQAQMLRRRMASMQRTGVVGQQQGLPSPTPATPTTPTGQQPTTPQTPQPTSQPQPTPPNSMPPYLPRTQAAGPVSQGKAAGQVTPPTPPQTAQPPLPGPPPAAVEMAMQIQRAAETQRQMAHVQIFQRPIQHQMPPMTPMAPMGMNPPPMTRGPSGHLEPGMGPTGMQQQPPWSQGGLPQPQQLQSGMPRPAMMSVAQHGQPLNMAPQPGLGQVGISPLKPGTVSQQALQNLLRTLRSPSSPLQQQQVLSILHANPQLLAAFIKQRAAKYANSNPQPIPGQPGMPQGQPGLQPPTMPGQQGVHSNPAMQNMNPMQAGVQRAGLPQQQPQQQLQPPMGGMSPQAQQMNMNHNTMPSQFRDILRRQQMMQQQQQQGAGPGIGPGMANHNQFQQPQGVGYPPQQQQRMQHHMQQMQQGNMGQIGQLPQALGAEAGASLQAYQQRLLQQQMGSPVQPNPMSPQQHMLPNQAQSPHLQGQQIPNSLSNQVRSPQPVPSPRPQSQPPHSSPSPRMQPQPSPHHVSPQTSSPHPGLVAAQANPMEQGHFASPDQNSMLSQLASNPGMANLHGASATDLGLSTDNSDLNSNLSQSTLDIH
Sequence of Histone deacetylase 2 (Q92769 whole entry): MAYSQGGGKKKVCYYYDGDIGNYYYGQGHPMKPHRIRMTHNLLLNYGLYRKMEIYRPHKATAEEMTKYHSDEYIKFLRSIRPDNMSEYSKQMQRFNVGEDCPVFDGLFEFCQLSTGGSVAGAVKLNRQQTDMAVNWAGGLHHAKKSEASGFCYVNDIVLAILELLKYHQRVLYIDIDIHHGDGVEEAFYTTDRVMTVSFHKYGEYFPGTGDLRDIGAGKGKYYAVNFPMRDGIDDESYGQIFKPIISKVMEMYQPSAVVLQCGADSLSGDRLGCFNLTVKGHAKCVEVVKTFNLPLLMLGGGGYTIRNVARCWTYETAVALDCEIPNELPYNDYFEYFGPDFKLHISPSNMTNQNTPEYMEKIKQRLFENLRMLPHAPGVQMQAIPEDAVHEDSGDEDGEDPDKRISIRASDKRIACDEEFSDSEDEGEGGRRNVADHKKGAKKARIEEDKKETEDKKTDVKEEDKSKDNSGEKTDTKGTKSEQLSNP
Sequence of Histone deacetylase 3 (O15379 whole entry): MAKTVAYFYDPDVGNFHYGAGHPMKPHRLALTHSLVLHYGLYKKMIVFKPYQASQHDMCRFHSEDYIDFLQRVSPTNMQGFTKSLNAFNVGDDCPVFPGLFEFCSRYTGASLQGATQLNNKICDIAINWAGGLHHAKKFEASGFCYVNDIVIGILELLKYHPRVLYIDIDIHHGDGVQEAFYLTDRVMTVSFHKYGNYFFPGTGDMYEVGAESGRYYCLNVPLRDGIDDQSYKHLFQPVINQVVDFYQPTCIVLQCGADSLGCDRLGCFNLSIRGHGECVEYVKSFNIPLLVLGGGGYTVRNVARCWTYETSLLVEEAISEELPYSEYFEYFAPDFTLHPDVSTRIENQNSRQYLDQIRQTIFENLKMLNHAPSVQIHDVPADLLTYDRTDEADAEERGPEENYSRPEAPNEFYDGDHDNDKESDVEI
Sequence of Histone deacetylase 1 (Q13547 whole entry): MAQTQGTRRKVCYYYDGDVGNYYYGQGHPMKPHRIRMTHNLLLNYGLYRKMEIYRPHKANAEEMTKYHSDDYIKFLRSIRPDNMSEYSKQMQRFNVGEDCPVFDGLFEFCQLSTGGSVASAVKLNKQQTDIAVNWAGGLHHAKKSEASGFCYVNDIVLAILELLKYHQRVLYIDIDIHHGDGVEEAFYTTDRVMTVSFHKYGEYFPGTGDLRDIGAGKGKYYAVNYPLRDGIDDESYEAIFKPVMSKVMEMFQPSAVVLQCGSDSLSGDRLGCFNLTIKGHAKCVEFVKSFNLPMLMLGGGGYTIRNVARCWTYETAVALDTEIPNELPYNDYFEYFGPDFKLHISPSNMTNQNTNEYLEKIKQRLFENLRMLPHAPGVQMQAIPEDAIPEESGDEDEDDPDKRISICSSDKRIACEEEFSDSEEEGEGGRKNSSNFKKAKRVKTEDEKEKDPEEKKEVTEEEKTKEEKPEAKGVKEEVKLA

In the case of `Cc1cc(-c2ccc(/C=C3\C(=O)N(c4ccc(C(=O)O)cc4)N=C3C3CC3)s2)c(C(F)(F)F)cc1C`, the Activity result is listed as “Active” in [1], “Active” in [2], “Not Active” in [3] and “Not Active” in data set [6]. The IC50 on Histone deacetylase 8 was > 100 µM; on Histone deacetylase 2, > 100 µM; on Histone deacetylase 1, > 100 µM; in [4], 25.1 µM; in the data set on T47D, 5.08 µM; in data set [5], 0.16 µM. Further, the figures for the IC50 on Histone deacetylase 3 and with MCF7 were > 100 µM and 22.5 µM, respectively. Moreover, the inhibition result in [7] was “Active”.
`Cc1cc(-c2ccc(/C=C(\C#N)C(=O)Nc3ccc(C(=O)O)cc3)o2)c([N+](=O)[O-])cc1C`: the IC50 in data set [5] was determined as 7.13 µM.
Take `CC1=NN(c2cc(F)c(O)c(F)c2)C(=O)/C1=C\c1ccc(-c2cc(C)c(C)cc2[N+](=O)[O-])o1`: the solubility result in data set [8] and in data set [9] was “Soluble” each time. Besides, the IC50 in [5] worked out at 4.8 µM. Moreover, the inhibition entry in data set [7] was “Active”.
On to `CC1=NN(c2ccc(C(=O)O)cc2)C(=O)/C1=C(/C)c1ccc(-c2cc(C)c(C)cc2[N+](=O)[O-])o1`, for which the IC50 in [5] was found to be 2.07 µM.
As for `Cc1cc(-c2ccc(/C=C3\C(=O)N(c4ccc(C(=O)O)cc4)N=C3C3CC3)o2)c([N+](=O)[O-])cc1C`, the IC50 in [5] is 0.2 µM.
As to `Cc1cc(C(=O)c2ccc3c(ccn3-c3ccc(C(=O)O)cc3)c2)c([N+](=O)[O-])cc1C`, the IC50 in data set [5] was > 10 µM.
Same read-out and setting: under `CC1=NN(c2ccc(C(=O)O)cc2)C(=O)/C1=C\c1ccc(-c2ccccc2[N+](=O)[O-])o1` stands 0.56 µM.
Same read-out and setting: as for `CC1=NN(c2ccc(C(=O)O)cc2)C(=O)C1CC(=O)Nc1cc(C)c(C)cc1[N+](=O)[O-]` (stereo not given), the figure is 9.61 µM.
The same measure, in the same setting: under `CCC1=NN(c2ccc(C(=O)O)cc2)C(=O)/C1=C\c1ccc(-c2cc(C)c(C)cc2[N+](=O)[O-])o1` stands 0.19 µM; under `Cc1cc(Cc2ccc3c(cnn3-c3ccc(C(=O)O)cc3)c2)c([N+](=O)[O-])cc1C`, > 10 µM.
Turning to `CC1=NN(c2ccc(C#N)cc2)C(=O)/C1=C\c1ccc(-c2cc(C)c(C)cc2[N+](=O)[O-])o1`, the IC50 in data set [5] amounted to 1.53 µM.
For the compound `CC1=NN(c2ccc(C(=O)O)cc2)C(=O)/C1=C\c1ccc(-c2cc(C)c(C)cc2[N+](=O)[O-])o1`, the result in data set [10] and in data set [11] was Active. Moreover, the IC50 in the data set on T47D was determined as 7.8 µM; with MCF7 it was 26.1 µM.
On to `CC1=NN(c2cc(F)c(O)c(F)c2)C(=O)/C1=C\c1ccc(-c2ccccc2OC(F)(F)F)o1`, for which, in [5], the IC50 is > 10 µM.
The same measure, in the same setting: under `CC1=NN(c2ccc(C(=O)O)cc2)C(=O)/C1=C\c1ccc(-c2cc(C)c(C)cc2[N+](=O)[O-])[nH]1` stands 1.95 µM; under `CC1=NN(c2ccc(P(=O)(O)O)cc2)C(=O)/C1=C\c1ccc(-c2cc(C)c(C)cc2[N+](=O)[O-])o1`, 0.47 µM.
The same measure, in the same setting: under `Cc1cc(-c2ccc(/C=C3/NC(=O)N(c4ccc(C(=O)O)cc4)C3=O)o2)c([N+](=O)[O-])cc1C` stands > 10 µM; under `CC1=NN(c2ccc(C(=O)O)cc2)C(=O)/C1=C\c1ccc(-c2ccccc2C(F)F)o1`, 1.17 µM; under `CC1=NN(c2ccc(S(C)(=O)=O)cc2)C(=O)/C1=C\c1ccc(-c2cc(C)c(C)cc2[N+](=O)[O-])o1`, 4.06 µM.
For `CC1=NN(c2ccc(C(=O)O)cc2)C(=O)/C1=C\c1ccc(-c2cccc3c2C(=O)CC3)o1`, the IC50 in the data set on T47D was determined as 10 µM; in data set [5] it was 0.58 µM; with MCF7, 26.8 µM. For the same compound, the inhibition result in data set [7] is “Active”.
`Cc1cc(C(=O)c2ccc3c(cnn3-c3ccc(C(=O)O)cc3)c2)c([N+](=O)[O-])cc1C`: the IC50 in data set [5] was > 10 µM.
Still for that read-out and setting: as for `CC1=NN(c2ccc(C(=O)O)cc2)C(=O)C1CCC(=O)Nc1cc(C)c(C)cc1[N+](=O)[O-]` (stereo not given), the figure is > 10 µM; as for `CC1=NN(c2ccc(C(=O)O)cc2)C(=O)/C1=C\c1cnc(-c2cc(C)c(C)cc2[N+](=O)[O-])s1`, 0.86 µM.
On to `CC1=NN(c2ccc(C(=O)O)cc2)C(=O)/C1=C\c1ccc(-c2cc(C)c(C)cc2C(F)(F)F)o1`, for which the IC50 worked out at 6.19 µM in the data set on T47D, 0.29 µM in data set [5] and 10.9 µM with MCF7. Moreover, the inhibition entry in [7] is “Active”.
As for `CC1=NN(c2ccc(C(=O)O)cc2)C(=O)/C1=C\c1ccc(-c2ccccc2P(C)(C)=O)o1`, the IC50 in [5] is > 10 µM.
For the compound `CC1=NN(c2cc(F)c(O)c(F)c2)C(=O)/C1=C\c1ccc(-c2cccc3c2C(=O)CC3)o1`, the solubility result in data set [8] and in data set [9] was “Soluble” each time. Further, the IC50 in data set [5] is 3.73 µM. Further, in [7], the inhibition result was “Active”.
Regarding `CC1=NN(c2cc(F)c(O)c(F)c2)C(=O)/C1=C\c1ccc(-c2cc(C)c(C)cc2C(F)(F)F)o1`, the solubility entry in [8] and in data set [9] was “Soluble” each time. In [5], the IC50 came out at 7.31 µM. Further, the inhibition entry in data set [7] is “Active”.
As for `CC1=NN(c2ccc(C(=O)O)cc2)C(=O)/C1=C\c1ccc(-c2cc(C)c(C)cc2[N+](=O)[O-])s1`, the IC50 is 8.92 µM in the data set with T47D, 0.23 µM in [5] and 27.3 µM with MCF7. In data set [7], the inhibition result is “Active”.
As to `CC1=NN(c2ccc(C(=O)O)cc2)C(=O)/C1=C\c1ccc(-c2ccccc2OC(F)(F)F)o1`, the IC50 was 7.67 µM in the data set with T47D, 1.13 µM in [5] and 23.9 µM in the data set on MCF7. The inhibition result in data set [7] is “Active”.
On to `CC1=NN(c2ccc(-c3nn[nH]n3)cc2)C(=O)/C1=C\c1ccc(-c2cc(C)c(C)cc2[N+](=O)[O-])o1`, for which, in data set [5], the IC50 amounted to 0.67 µM.
Still for that read-out and setting: as for `Cc1cc(-c2ccc(/C=C3/SC(=O)N(c4ccc(C(=O)O)cc4)C3=O)o2)c([N+](=O)[O-])cc1C`, the figure is > 10 µM.
For the compound `CC1=NN(c2cc(F)c(O)c(F)c2)C(=O)/C1=C\c1ccc(-c2ccccc2C(F)F)o1`, the solubility entry in data set [8] and in [9] was “Soluble” in each case. Also, in data set [5], the IC50 was found to be 6.05 µM. Moreover, the inhibition entry in data set [7] is “Active”.
